# From patent publication US12331029B2, “Orexin 1 receptor antagonists” (NXERA PHARMA UK LIMITED, priority 2018, dated 2025)
# Tests used:
# Human OX2 receptor [1] = biological target: T1, Human OX2 receptor (Homo sapiens, UniProt O43614); assay: [3H]-radioligand binding assay, human OX2 receptor membranes
# T1 sequence (O43614 1-444): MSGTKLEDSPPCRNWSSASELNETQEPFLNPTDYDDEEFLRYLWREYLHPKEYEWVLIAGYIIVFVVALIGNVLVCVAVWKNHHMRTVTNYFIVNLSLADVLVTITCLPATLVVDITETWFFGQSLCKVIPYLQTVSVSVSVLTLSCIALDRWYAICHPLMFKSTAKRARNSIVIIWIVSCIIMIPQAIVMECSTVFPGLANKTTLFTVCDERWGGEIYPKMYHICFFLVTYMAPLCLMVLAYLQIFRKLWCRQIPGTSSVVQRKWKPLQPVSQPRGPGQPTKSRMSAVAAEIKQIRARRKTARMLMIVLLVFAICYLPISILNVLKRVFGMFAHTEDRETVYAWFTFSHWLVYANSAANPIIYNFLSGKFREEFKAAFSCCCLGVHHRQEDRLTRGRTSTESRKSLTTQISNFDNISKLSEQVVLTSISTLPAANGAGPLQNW
# Description: (§2) Human OX1 or OX2 receptor were cloned into Invitrogen's (ThermoFisher Scientific, UK) Bac-to-Bac Baculovirus Expression System. P0 baculovirus was generated by transfecting SF9 cells with bacmid DNA using Cellfectin® II transfection reagent (ThermoFisher Scientific, UK, Catalog number 10362-100). Following P0 generation P1 virus was then generated ready for large scale infection and membrane preparation. SF21 cells were grown in expression medium ESF921 (Expression Systems, USA, catalog number 96-001-01) supplemented with 10% heat-inactivated FBS and 1% Pen/Strep and were infected at a cell density of 2.5×10^6 cells/mL and a multiplicity of infection of 1.0 for both human OX1R and OX2R. Incubation was carried out at over 48 h in a shaking incubator set at 27° C. The cell culture was then centrifuged at 2,500 rcf for 10 min at 4° C. The pellets were resuspended in cold PBS supplemented with Roche's Complete EDTA-free protease inhibitor cocktail tablets (Roche Applied Sciences, catalog number 05056489001), 1 mM PMSF and 1 mM EDTA. The resuspended cell paste was then centrifuged at 3,273 rcf for 12 min at 4° C. The supernatant was discarded and the pellet frozen at −80° C. The cell pellet from a 4 L culture was resuspended in buffer containing 50 mM HEPES pH 7.5, 150 mM NaCl, 8 Roche EDTA-Free protease inhibitor cocktail tablets and 1 mM PMSF. The suspension was left stirring at rt for 1 h and then homogenised for 90 s at 9,500 rpm using a VDI 25 (VWR, USA) homogeniser. The cells were then lysed using a Microfluidiser processor M-110L Pneumatic (Microfluidics, USA) at 60 PSI and membranes collected by ultracentrifugation at 204.7 k×g for 1 h. The supernatant was discarded and the pellet was resuspended and homogenised in 90 s at 9,500 rpm in 50 mL (25 mL for each 2 L culture) of buffer containing 50 mM Hepes pH 7.5, 150 mM NaCl, 3 Roche EDTA-free protease inhibitor cocktail tablets and 1 mM PMSF. The resulting membranes were then stored at −80° C.
# (§3) [^3H]-radioligand binding assay. After thawing, membrane homogenates were re-suspended in the binding buffer (8.5 mM HEPES, pH 7.4, 1.3 mM CaCl2, 1.2 mM MgSO4, 118 mM NaCl, 4.7 mM KCl, 4 mM NaHCO3, 1.2 mM KH2PO4, 11 mM glucose) to a final assay concentration of 6.4 μg (OX1) or 1.4 μg (OX2) protein per well. Saturation isotherms were determined by the addition of various concentrations (0-30 nM) of [^3H]-4-(2,6-difluoro-4-methoxybenzyl)-2-(5,6-dimethoxypyridin-3-yl)-2H-1,2,4-benzothiadiazin-3(4H)-one 1,1-dioxide (Christopher et al, MedChemComm., 2015, 6, 947-955) in a total reaction volume of 250 μL for 90 min at rt. At the end of the incubation, membranes were filtered onto a 96-well GF/B filter pre-incubated with 0.5% polyethylenimine, with a Tomtec cell harvester and washed 5 times with 0.5 mL distilled water. Non-specific binding (NSB) was measured in the presence of 3.33 μM [4-(5-chloro-1,3-benzoxazol-2-yl)-7-methyl-1,4-diazepan-1-yl][5-methyl-2-(2H-1,2,3-triazol-2-yl)phenyl]methanone (Wertz et al, Angew. Chem. Int. Ed., 2011, 50, 11511-11515). Radioactivity on the filter was counted (1 min) on a Microbeta radiometric plate counter (Perkin Elmer) after addition of 50 μL of scintillation fluid (LabLogic: Part #SG-BXX-14). […] IC50 values were derived from the inhibition curve and the equilibrium dissociation constant (Ki) values were calculated using the Cheng-Prusoff equation.
# Human OX1 receptor [2] = biological target: T2, Human OX1 receptor (Homo sapiens, UniProt O43613); assay: [3H]-radioligand binding assay, human OX1 receptor membranes
# T2 sequence (O43613 1-425): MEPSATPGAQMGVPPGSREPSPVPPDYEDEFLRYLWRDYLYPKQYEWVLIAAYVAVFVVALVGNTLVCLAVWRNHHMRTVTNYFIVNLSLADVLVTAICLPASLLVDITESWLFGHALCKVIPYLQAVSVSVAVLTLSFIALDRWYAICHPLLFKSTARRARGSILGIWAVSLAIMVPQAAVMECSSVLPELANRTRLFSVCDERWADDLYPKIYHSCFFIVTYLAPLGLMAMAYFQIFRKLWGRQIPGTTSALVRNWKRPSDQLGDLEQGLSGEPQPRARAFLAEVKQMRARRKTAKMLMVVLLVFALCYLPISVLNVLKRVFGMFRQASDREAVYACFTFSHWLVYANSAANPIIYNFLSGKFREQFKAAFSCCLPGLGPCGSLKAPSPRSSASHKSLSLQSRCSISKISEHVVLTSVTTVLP
# Description: as §2, §3
# Human OX2 receptor [3] = biological target: T1, Human OX2 receptor; assay: IPone accumulation assay, CHO cells expressing human OX2 receptor; type: cell-based; settings: antagonism of orexin A (EC80) induced inositol phosphate turnover, read-out: fpKb average OX2
# Description: (§1) Stable cell lines for the human OX1R and OX2R receptors were generated through the transfection of CHO cells using the transfection reagent Genejuice (Novagen number 70967) and cDNA coding for either the human OX1R or OX2R. Cells were cultured in Sigma Nutrient Mixture F-12 Ham media (catalog number N6658) supplemented with 10% heat-inactivated FBS. Forty-eight hours after transfection, cells were harvested and placed under geneticin selection by culturing in Sigma Nutrient Mixture F-12 Ham media supplemented with 10% heat-inactivated FBS and geneticin (ThermoFisher Catalog number: 10131035). Selection of the final stable clone for each receptor was made on the basis of receptor expression, assay signal to noise and robustness though increasing passage. Selected clones for the human OX1R and OX2R were then frozen down into liquid nitrogen using Cell Freezing Medium-DMSO (Sigma-Aldrich catalog number: C6164).
# IPone accumulation assay. A CHO cell line stably expressing either human OX1 or OX2 receptor was used with the IPone HTRF assay kit (CisBio: Part #62IPAPEJ) to measure receptor activation. The assay was optimised to measure the ability (potency; fpKb) of antagonists to reduce agonist (orexin A)-induced inositol phosphate turnover. Briefly, cells were plated onto half area 96-well white walled plates at a density of 12,500 cells/well. Sixteen hours post-plating cell growth media was replaced with antagonist concentration-response curve diluted in stimulation buffer (supplied with the kit). […] After 30 min stimulation in a humidified incubator (37° C.) the assay was terminated by the addition of detection mixture as per manufacturer's instructions. The concentration of compound which reduced orexin-A stimulated turnover of inositol phosphates by 50% (IC50) was calculated by fitting to a four parameter sigmoidal dose response curve. The IC50 values were converted to fpKB values using the orexin A pEC50 value estimated on each plate as well as the challenge concentration interpolated from the orexin A control curve.
# Human OX1 receptor [4] = biological target: T2, Human OX1 receptor; assay: IPone accumulation assay, CHO cells expressing human OX1 receptor; type: cell-based; settings: antagonism of orexin A (EC80) induced inositol phosphate turnover, read-out: fpKb average OX1 (converted)
# Description: as §1
# IPone accumulation assay. A CHO cell line stably expressing either human OX1 or OX2 receptor was used with the IPone HTRF assay kit (CisBio: Part #62IPAPEJ) to measure receptor activation. The assay was optimised to measure the ability (potency; fpKb) of antagonists to reduce agonist (orexin A)-induced inositol phosphate turnover. Briefly, cells were plated onto half area 96-well white walled plates at a density of 12,500 cells/well. Sixteen hours post-plating cell growth media was replaced with antagonist concentration-response curve diluted in stimulation buffer (supplied with the kit). Cells were incubated in a humidified incubator (37° C.) for 30 min before an EC80 challenge concentration (˜20 nM (OX1) and 40 nM (OX2)) of orexin A (Tocris catalogue number 1455). After 30 min stimulation in a humidified incubator (37° C.) the assay was terminated by the addition of detection mixture as per manufacturer's instructions. The concentration of compound which reduced orexin-A stimulated turnover of inositol phosphates by 50% (IC50) was calculated by fitting to a four parameter sigmoidal dose response curve. The IC50 values were converted to fpKB values using the orexin A pEC50 value estimated on each plate as well as the challenge concentration interpolated from the orexin A control curve.
Ki (Human OX2 receptor [1]) [nM],Ki (Human OX1 receptor [2]) [nM],Kb (Human OX2 receptor [3]) [nM],Kb (Human OX1 receptor [4]) [nM],Structure (SMILES)
> 3160,3.98,> 2000,63.1,"O=C(N[C@H]1CCC[C@@H]1COc1ccc(F)cc1)c1c(F)cccc1-n1nccn1 [Example 4, 2-fluoro-N-[(1S,2S)-2-[(4-fluorophenoxy)methyl]cyclopentyl]-6-(triazol-2-yl)benzamide]"
> 1260,25.1,> 2510,100,"O=C(N[C@H]1CCC[C@@H]1COc1ccc(F)c(F)c1)c1ncccc1-c1ncccn1 [Example 28, N-[(1S,2S)-2-[(3,4-difluorophenoxy)methyl]cyclopentyl]-3-pyrimidin-2-yl-pyridine-2-carboxamide]"
> 5010,7.94,> 1260,63.1,"COCc1ccc(-n2nccn2)c(C(=O)N[C@H]2CCC[C@@H]2COc2ccc(F)cc2)n1 [Example 18, N-[(1S,2S)-2-[(4-fluorophenoxy)methyl]cyclopentyl]-6-(methoxymethyl)-3-(triazol-2-yl)pyridine-2-carboxamide]"
> 5010,7.94,> 1260,79.4,"COCc1ccc(-n2nccn2)c(C(=O)N[C@H]2CCC[C@@H]2COc2ccc(Cl)cc2)n1 [Example 19, N-[(1S,2S)-2-[(4-chlorophenoxy)methyl]cyclopentyl]-6-(methoxymethyl)-3-(triazol-2-yl)pyridine-2-carboxamide]"
> 5010,5.01,> 1260,63.1,"Cc1ccc(-c2ncccn2)c(C(=O)N[C@H]2CCC[C@@H]2COc2ccc(F)cc2)c1 [Example 2, N-[(1S,2S)-2-[(4-fluorophenoxy)methyl]cyclopentyl]-5-methyl-2-pyrimidin-2-yl-benzamide]"
> 5010,7.94,> 1260,100,"COc1ccc(-n2nccn2)c(C(=O)N[C@H]2CCC[C@@H]2COc2ccc(F)cc2)n1 [Example 20, N-[(1S,2S)-2-[(4-fluorophenoxy)methyl]cyclopentyl]-6-methoxy-3-(triazol-2-yl)pyridine-2-carboxamide]"
1580,12.6,> 631,31.6,"COc1cccc(-c2ncc(F)cn2)c1C(=O)N[C@H]1CCC[C@@H]1COc1ccc(F)cc1 [Example 13, N-[(1S,2S)-2-[(4-fluorophenoxy)methyl]cyclopentyl]-2-(5-fluoropyrimidin-2-yl)-6-methoxy-benzamide]"
> 1260,7.94,> 631,25.1,"COc1nccc(-c2ncccn2)c1C(=O)N[C@H]1CCC[C@@H]1COc1ccc(F)cc1 [Example 30, N-[(1S,2S)-2-[(4-fluorophenoxy)methyl]cyclopentyl]-2-methoxy-4-pyrimidin-2-yl-pyridine-3-carboxamide]"
2000,20,> 2510,50.1,"COc1cccc(-c2ncccn2)c1C(=O)N[C@H]1CCC[C@@H]1COc1ccc(F)cn1 [Example 32, N-[(1S,2S)-2-[(5-fluoro-2-pyridyl)oxymethyl]cyclopentyl]-2-methoxy-6-pyrimidin-2-yl-benzamide]"
> 3980,1.26,> 1260,39.8,"Cc1ccc(-n2nccn2)c(C(=O)N[C@H]2CCC[C@@H]2COc2ccc(Cl)cc2)n1 [Example 23, N-[(1S,2S)-2-[(4-chlorophenoxy)methyl]cyclopentyl]-6-methyl-3-(triazol-2-yl)pyridine-2-carboxamide]"
> 1260,31.6,> 631,251,"COCc1cccc(-n2nccn2)c1C(=O)N[C@H]1CCC[C@@H]1COc1ccc(F)cc1 [Example 17, N-[(1S,2S)-2-[(4-fluorophenoxy)methyl]cyclopentyl]-2-(methoxymethyl)-6-(triazol-2-yl)benzamide]"
> 5010,20,> 2510,316,"O=C(N[C@H]1CCC[C@@H]1COc1ccc(Cl)cc1)c1ncccc1-c1ncccn1 [Example 27, N-[(1S,2S)-2-[(4-chlorophenoxy)methyl]cyclopentyl]-3-pyrimidin-2-yl-pyridine-2-carboxamide]"
> 3160,12.6,> 794,251,"O=C(N[C@H]1CCC[C@@H]1COc1ccc(F)cc1F)c1ncccc1-c1ncccn1 [Example 26, N-[(1S,2S)-2-[(2,4-difluorophenoxy)methyl]cyclopentyl]-3-pyrimidin-2-yl-pyridine-2-carboxamide]"
200,1.58,> 501,1.58,"COc1cccc(-n2nccn2)c1C(=O)N[C@H]1CCC[C@@H]1COc1ccc(F)cc1 [Example 5, N-[(1S,2S)-2-[(4-fluorophenoxy)methyl]cyclopentyl]-2-methoxy-6-(triazol-2-yl)benzamide]"
158,2.51,> 794,0.794,"[2H]C([2H])(Oc1ccc(F)cc1)[C@H]1CCC[C@@H]1NC(=O)c1c(OC)cccc1-n1nccn1 [Example 7, N-[(1S,2S)-2-[dideuterio-(4-fluorophenoxy)methyl]cyclopentyl]-2-methoxy-6-(triazol-2-yl)benzamide]"
